Experimental findings from patent US8110570B2, “Modulators of acetyl-coenzyme A carboxylase and methods of use thereof” (Cropsolution, Inc., priority 2008, dated 2012) are described below.

Assay type in all cases: biochemical
Experiment [1] deals with T1, hACC1 (Homo sapiens, UniProt Q13085).
T1 construct: PCR primers were designed for full-length hACC1 and hACC2 using GenBank submissions AY237919 and AJ575592, respectively; His tag (C); made in house; host or cells: baculovirus, Sf9 insect cells
Kind of experiment: [14C]bicarbonate incorporation assay, overall ACC activity. The settings on record: recombinant hACC1, overall ACC activity. The method in brief:
(§1)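 His-tagged full-length hACC1 or hACC2 (residues 1-148 deleted, Met-Gly added), expressed in sf9 cells with biotin and purified, were assayed by [14C]bicarbonate incorporation into acetyl-CoA. Reactions at pH 7.4 with 2 mM acetyl-CoA, 12 mM NaHCO3 and 1% DMSO were started with 2 mM ATP and run 10 min at 37° C. Acid-stable label was counted and IC50 obtained from dose-response fits.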

Experiment [2] deals with T2, hACC2 (Homo sapiens, UniProt O00763).
T2 construct: delete amino acids 1-148 and add Met-Gly in front of Lys149 in the final product; His tag (C); made in house; host or cells: baculovirus, Sf9 insect cells
Described as above. The settings on record: recombinant hACC2, overall ACC activity. Summed up:
as §1

Experiment [3] has as its target T3, hACC1-CT (Homo sapiens, UniProt Q13085).
T3 construct: PCR primers were designed for full-length hACC1 and hACC2 using GenBank submissions AY237919 and AJ575592, respectively; His tag (C); made in house; host or cells: baculovirus, Sf9 insect cells
Kind of experiment: acetyl-CoA/malonyl-CoA isotope exchange assay, CT half-reaction. On the procedure:
Overall ACC activity is comprised of two half-reactions, the BC reaction (the ATP-dependent carboxylation of biotin) and the CT reaction (the transfer of the carboxyl group from biotin to acetyl-CoA to form malonyl-CoA). Thus, it is of interest to localize the site of action of ACC inhibitors. To this end, representative compounds are tested in an acetyl-CoA/malonyl-CoA isotope exchange reaction which specifically measures the CT-half reaction. This assay is performed with slight modifications of published procedures (Gregolin et al., J Biol Chem, 1968, 243:4227-4235; Rendina et al., J Agric Food Chem, 1990, 38:1282-1287). Briefly, the reaction mixture (50 μL) contained 50 mM Hepes (pH 7.4), 20 mM K-citrate, 1.5 mM MgSO4, 4 mM malonyl-CoA, 1.67 mM acetyl-CoA, 0.34 mM [^14C]acetyl-CoA (about 60 mCi/mmol), 0.75 mg/mL BSA, and 1% (v/v) DMSO with or without inhibitor. Reactions are initiated by the addition of hACCl (0.3 μg) or hACC2 (0.15 μg) enzyme and incubated at 37° C. for 10 min. Reactions are stopped by addition of a 0.2M sodium arsenate solution containing 1U of phosphotransacetylase (13.5 μL) and incubation at room temperature for 30 min. […] The samples are then resuspended in water (200 μL), added to scintillation cocktail (3 mL), and counted in a scintillation counter to quantify radiolabel incorporated into malonyl-CoA. […]

In experiment [4] the target is uACC (Ustilago maydis ACC) (Ustilago maydis, UniProt A0A0D1DYD5). Kind of experiment: [14C]bicarbonate incorporation assay, overall ACC activity.
Chain of uACC (Ustilago maydis ACC) (A0A0D1DYD5 entry or part of it): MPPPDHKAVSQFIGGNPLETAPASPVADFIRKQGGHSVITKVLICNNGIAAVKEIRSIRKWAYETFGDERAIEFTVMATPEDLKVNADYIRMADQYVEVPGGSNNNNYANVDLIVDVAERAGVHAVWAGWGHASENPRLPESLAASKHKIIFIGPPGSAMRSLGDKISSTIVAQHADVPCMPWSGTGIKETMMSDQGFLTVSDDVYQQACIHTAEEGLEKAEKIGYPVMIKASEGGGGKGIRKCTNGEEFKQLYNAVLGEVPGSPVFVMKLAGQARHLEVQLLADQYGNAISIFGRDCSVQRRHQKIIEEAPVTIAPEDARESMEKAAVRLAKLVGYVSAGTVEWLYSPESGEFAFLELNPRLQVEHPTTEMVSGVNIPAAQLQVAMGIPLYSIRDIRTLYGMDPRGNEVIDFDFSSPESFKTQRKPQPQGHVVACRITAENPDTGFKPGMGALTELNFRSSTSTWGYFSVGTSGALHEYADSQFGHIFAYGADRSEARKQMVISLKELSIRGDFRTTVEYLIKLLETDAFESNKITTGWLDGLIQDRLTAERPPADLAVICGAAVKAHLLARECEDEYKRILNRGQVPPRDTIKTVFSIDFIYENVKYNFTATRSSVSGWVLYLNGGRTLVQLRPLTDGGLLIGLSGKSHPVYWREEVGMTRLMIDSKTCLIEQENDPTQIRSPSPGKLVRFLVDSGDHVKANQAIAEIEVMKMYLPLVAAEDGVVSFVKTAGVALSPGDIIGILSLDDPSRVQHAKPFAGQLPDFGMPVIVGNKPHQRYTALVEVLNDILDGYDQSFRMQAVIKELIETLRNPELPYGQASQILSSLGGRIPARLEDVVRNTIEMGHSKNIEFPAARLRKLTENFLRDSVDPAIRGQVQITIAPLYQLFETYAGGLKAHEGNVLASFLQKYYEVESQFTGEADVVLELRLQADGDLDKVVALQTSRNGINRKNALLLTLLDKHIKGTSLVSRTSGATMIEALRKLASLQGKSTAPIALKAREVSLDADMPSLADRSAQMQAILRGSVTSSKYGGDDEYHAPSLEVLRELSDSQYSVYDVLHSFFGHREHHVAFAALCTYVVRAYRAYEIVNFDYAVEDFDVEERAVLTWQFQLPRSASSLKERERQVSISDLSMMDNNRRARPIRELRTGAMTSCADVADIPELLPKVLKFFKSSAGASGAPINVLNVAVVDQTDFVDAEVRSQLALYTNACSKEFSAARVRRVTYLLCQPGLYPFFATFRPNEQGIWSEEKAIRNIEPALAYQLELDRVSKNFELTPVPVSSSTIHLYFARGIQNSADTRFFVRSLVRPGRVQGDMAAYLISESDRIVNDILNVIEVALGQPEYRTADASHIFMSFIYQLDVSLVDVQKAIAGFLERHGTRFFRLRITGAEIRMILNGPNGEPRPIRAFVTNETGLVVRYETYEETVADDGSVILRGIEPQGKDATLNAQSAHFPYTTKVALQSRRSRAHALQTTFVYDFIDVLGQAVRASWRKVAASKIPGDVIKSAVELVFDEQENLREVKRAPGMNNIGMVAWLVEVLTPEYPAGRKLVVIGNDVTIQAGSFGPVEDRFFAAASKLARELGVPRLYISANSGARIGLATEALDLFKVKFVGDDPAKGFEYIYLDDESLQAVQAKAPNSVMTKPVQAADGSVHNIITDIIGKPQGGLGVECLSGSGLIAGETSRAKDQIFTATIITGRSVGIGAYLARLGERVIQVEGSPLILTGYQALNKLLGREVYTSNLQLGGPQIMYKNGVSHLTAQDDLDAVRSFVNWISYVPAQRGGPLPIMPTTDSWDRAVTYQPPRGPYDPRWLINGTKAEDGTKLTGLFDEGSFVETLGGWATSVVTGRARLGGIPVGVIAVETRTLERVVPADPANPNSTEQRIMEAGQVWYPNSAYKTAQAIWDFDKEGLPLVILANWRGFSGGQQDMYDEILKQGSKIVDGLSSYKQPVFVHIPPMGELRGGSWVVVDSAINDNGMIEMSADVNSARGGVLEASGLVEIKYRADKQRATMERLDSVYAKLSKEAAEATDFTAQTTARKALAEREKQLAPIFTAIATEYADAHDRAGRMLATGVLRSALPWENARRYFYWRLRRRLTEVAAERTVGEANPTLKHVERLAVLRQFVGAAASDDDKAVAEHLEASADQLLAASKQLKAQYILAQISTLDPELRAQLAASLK

T2 sequence (O00763 149-2458 limits assumed): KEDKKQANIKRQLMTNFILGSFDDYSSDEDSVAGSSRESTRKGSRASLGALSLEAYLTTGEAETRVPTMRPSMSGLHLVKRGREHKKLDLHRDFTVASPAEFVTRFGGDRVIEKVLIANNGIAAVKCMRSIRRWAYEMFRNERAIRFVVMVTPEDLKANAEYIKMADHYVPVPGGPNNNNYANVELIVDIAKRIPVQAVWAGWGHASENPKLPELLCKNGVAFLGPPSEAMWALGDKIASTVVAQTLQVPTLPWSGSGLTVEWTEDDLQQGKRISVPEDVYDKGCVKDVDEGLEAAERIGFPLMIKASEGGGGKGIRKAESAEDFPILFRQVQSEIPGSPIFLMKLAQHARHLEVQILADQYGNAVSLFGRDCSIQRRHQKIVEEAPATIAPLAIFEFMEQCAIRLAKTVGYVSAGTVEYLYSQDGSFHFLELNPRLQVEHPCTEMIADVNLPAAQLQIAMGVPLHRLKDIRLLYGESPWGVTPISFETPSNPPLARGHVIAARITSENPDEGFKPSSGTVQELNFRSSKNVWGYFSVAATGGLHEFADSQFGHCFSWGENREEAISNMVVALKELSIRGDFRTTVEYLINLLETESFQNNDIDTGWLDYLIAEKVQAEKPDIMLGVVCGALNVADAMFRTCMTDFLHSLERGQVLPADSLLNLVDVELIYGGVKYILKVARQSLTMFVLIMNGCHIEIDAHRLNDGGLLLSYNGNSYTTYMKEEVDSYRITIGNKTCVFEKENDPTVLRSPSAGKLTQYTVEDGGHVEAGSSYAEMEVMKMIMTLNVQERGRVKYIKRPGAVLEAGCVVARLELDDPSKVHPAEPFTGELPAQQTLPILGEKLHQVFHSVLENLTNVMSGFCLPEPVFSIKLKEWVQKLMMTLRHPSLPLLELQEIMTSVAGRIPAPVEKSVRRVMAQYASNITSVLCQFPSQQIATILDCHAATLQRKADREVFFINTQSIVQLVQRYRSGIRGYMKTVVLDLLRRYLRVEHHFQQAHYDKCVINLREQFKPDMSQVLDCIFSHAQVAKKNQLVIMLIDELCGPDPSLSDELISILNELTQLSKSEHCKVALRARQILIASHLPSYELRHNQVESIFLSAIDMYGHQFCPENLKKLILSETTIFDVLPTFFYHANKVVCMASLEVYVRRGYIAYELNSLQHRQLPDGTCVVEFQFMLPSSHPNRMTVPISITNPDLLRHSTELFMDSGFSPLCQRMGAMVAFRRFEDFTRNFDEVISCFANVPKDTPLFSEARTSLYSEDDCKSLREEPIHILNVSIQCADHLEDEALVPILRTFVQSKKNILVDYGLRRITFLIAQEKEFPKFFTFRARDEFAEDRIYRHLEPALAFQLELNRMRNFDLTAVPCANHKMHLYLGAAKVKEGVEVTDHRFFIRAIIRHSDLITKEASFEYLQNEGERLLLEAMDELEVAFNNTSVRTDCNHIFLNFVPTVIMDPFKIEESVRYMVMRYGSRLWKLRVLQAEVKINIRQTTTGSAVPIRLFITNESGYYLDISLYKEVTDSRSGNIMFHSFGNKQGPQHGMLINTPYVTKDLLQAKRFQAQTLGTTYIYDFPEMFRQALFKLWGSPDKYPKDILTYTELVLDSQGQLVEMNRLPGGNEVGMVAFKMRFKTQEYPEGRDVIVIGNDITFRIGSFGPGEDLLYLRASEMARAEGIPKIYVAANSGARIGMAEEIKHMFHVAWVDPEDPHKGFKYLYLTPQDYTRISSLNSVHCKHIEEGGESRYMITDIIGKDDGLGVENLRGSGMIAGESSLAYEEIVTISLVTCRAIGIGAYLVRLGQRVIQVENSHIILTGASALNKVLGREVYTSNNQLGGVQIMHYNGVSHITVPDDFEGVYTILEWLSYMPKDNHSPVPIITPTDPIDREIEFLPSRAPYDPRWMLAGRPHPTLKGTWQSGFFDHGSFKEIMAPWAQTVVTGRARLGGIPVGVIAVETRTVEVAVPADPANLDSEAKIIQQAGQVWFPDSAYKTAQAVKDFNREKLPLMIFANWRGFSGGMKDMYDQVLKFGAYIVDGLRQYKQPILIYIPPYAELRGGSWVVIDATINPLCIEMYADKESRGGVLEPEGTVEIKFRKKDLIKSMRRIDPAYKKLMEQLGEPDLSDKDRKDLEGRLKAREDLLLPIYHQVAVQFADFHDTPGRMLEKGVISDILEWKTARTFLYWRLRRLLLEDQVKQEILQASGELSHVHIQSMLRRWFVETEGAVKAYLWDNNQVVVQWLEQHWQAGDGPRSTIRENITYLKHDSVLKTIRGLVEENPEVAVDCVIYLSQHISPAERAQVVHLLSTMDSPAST

Broadly, the IC50 is the concentration needed to halve the response being measured. Consider `COc1ccc(OC)c2[nH]c(C(=O)N3CCC4(CC3)NC(=O)c3ccccc3O4)cc12` [Compound 7, 1′-[(4,7-Dimethoxy-1H-indol-2-yl)carbonyl]spiro[2H-1,3-benzoxazin-2,4′-piperidin]-4-(3H)-one], for which the IC50 was found to be 1.1 µM in experiment [1], 0.85 µM in experiment [2], 1.2 µM in experiment [3] and 20 µM in experiment [4].
